Reference: PubChem BioAssay AID248 (DTP/NCI, 2004)
Toxic doses and inconclusive results are not listed. No stated cut-off is given here; in the data, active means T/C of 150% or more; inactive means T/C below 125%.

Test system: L1210 leukemia ip in BDF1 mice, survival T/C
Assay: NCI In Vivo Anticancer Drug Screen. Data for tumor model L1210 Leukemia (intraperitoneal) in B6D2F1 (BDF1) mice
Details: endpoint: mean survival time, higher = longer survival
How it was run: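 Survival endpoint. Drug-treated group vs vehicle group, expressed as T divided by C. Tumor passaged by transplantation.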

[1] = dose: 100.0 mg/kg/injection, schedule: Q01DX009 (ip), vehicle: saline with Tween-80
[2] = dose: 200.0 mg/kg/injection, schedule: Q01DX009 (ip), vehicle: saline with Tween-80
[3] = dose: 100.0 mg/kg/injection, schedule: Q04DX003 (ip), vehicle: saline with Tween-80
[4] = dose: 200.0 mg/kg/injection, schedule: Q04DX003 (ip), vehicle: saline with Tween-80
[5] = dose: 400.0 mg/kg/injection, schedule: Q04DX003 (ip), vehicle: saline with Tween-80
[6] = dose: 75.0 mg/kg/injection, schedule: Q01DX001 (ip), vehicle: saline
[7] = dose: 400.0 mg/kg/injection, schedule: Q04DX002 (ip), vehicle: saline with Tween-80
[8] = dose: 100.0 mg/kg/injection, schedule: Q04DX002 (ip), vehicle: Klucel (hydroxypropylcellulose) (HPC)
[9] = dose: 200.0 mg/kg/injection, schedule: Q04DX002 (ip), vehicle: Klucel (hydroxypropylcellulose) (HPC)
[10] = dose: 400.0 mg/kg/injection, schedule: Q04DX002 (ip), vehicle: Klucel (hydroxypropylcellulose) (HPC)

Measured: T/C

C[Si](C)(C)OC/C=C\CO[Si](C)(C)C
inactive: dose: 100.0 mg/kg/injection, schedule: Q01DX009 (ip), vehicle: saline 96 % of control | dose: 100.0 mg/kg/injection, schedule: Q04DX003 (ip), vehicle: alcohol 103 % of control | dose: 200.0 mg/kg/injection, schedule: Q01DX009 (ip), vehicle: saline 94 % of control | dose: 200.0 mg/kg/injection, schedule: Q04DX003 (ip), vehicle: alcohol 101 % of control | dose: 400.0 mg/kg/injection, schedule: Q04DX003 (ip), vehicle: alcohol 96 % of control

CC(=O)NCc1ccccc1
inactive: [1] 97 % of control | dose: 100.0 mg/kg/injection, schedule: Q04DX003 (ip), vehicle: Klucel (hydroxypropylcellulose) (HPC) 95 % of control | [2] 92 % of control | dose: 200.0 mg/kg/injection, schedule: Q04DX003 (ip), vehicle: Klucel (hydroxypropylcellulose) (HPC) 100 % of control | dose: 400.0 mg/kg/injection, schedule: Q01DX009 (ip), vehicle: saline with Tween-80 100 % of control | dose: 400.0 mg/kg/injection, schedule: Q04DX003 (ip), vehicle: Klucel (hydroxypropylcellulose) (HPC) 100 % of control

COc1ccccc1/C=N/N=C(/N)N[N+](=O)[O-]
inactive: dose: 100.0 mg/kg/injection, schedule: Q01DX001 (ip), vehicle: Klucel (hydroxypropylcellulose) (HPC) 102 % of control | dose: 200.0 mg/kg/injection, schedule: Q01DX001 (ip), vehicle: Klucel (hydroxypropylcellulose) (HPC) 101 % of control | dose: 400.0 mg/kg/injection, schedule: Q01DX001 (ip), vehicle: Klucel (hydroxypropylcellulose) (HPC) 98 % of control

ON=C(c1ccccc1)c1ccccc1
inactive: [1] 101 % of control | [2] 105 % of control

COc1ccc(C(C)(C#N)Nc2ccccc2)cc1 (stereo unspecified)
inactive: [3] 98 % of control | [4] 96 % of control

N=C(N)c1ccc(OCCCCCCOc2ccc(C(=N)N)cc2)cc1
inactive: dose: 5.0 mg/kg/injection, schedule: Q01DX001 (ip), vehicle: saline 100 % of control | dose: 10.0 mg/kg/injection, schedule: Q01DX001 (ip), vehicle: saline 100 % of control | dose: 20.0 mg/kg/injection, schedule: Q01DX001 (ip), vehicle: saline 103 % of control | dose: 40.0 mg/kg/injection, schedule: Q01DX001 (ip), vehicle: saline 101 % of control | dose: 80.0 mg/kg/injection, schedule: Q01DX001 (ip), vehicle: saline 92 % of control

O=C(CCl)Nc1ccc(S(=O)(=O)F)cc1
inactive: dose: 12.5 mg/kg/injection, schedule: Q01DX009 (ip), vehicle: carboxymethylcellulose (CMC) 93 % of control | dose: 25.0 mg/kg/injection, schedule: Q01DX009 (ip), vehicle: carboxymethylcellulose (CMC) 88 % of control | dose: 50.0 mg/kg/injection, schedule: Q01DX009 (ip), vehicle: carboxymethylcellulose (CMC) 88 % of control | dose: 100.0 mg/kg/injection, schedule: Q04DX003 (ip), vehicle: carboxymethylcellulose (CMC) 96 % of control

O=C(Nc1cccc(C(=O)Nc2cc(C3=NCCN3)cc(C3=NCCN3)c2)c1)Nc1cccc(C(=O)Nc2cc(C3=NCCN3)cc(C3=NCCN3)c2)c1
inactive: dose: 15.0 mg/kg/injection, schedule: Q01DX Z (ip), vehicle: methylcellulose (MC) 109 % of control | dose: 30.0 mg/kg/injection, schedule: Q01DX Z (ip), vehicle: methylcellulose (MC) 105 % of control | dose: 60.0 mg/kg/injection, schedule: Q01DX Z (ip), vehicle: methylcellulose (MC) 96 % of control

Cc1ccc(S(=O)(=O)NC(=O)NCCCOC(C)C)cc1
inactive: [3] 98 % of control | [4] 94 % of control | [5] 96 % of control

Nc1ccc(Cl)nc1
inactive: dose: 50.0 mg/kg/injection, schedule: Q01DX001 (ip), vehicle: saline 98 % of control | dose: 100.0 mg/kg/injection, schedule: Q01DX001 (ip), vehicle: saline 98 % of control | dose: 200.0 mg/kg/injection, schedule: Q01DX001 (ip), vehicle: saline 102 % of control | dose: 400.0 mg/kg/injection, schedule: Q01DX001 (ip), vehicle: saline 96 % of control

C[n+]1ccccc1/C=C/c1ccc(O)c(O)c1
inactive: [6] 96 % of control | dose: 300.0 mg/kg/injection, schedule: Q01DX001 (ip), vehicle: saline 102 % of control

CC(=O)Nc1nc(C=O)c(CCCCc2ccccc2)c(=O)[nH]1
inactive: dose: 80.0 mg/kg/injection, schedule: Q01DX001 (ip), vehicle: Klucel (hydroxypropylcellulose) (HPC) 102 % of control | dose: 160.0 mg/kg/injection, schedule: Q01DX001 (ip), vehicle: Klucel (hydroxypropylcellulose) (HPC) 107 % of control | dose: 320.0 mg/kg/injection, schedule: Q01DX001 (ip), vehicle: Klucel (hydroxypropylcellulose) (HPC) 107 % of control

COc1ccccc1NC(=O)NC1CCCCC1
inactive: dose: 100.0 mg/kg/injection, schedule: Q01DX009 (ip), vehicle: Klucel (hydroxypropylcellulose) (HPC) 100 % of control | dose: 200.0 mg/kg/injection, schedule: Q01DX009 (ip), vehicle: Klucel (hydroxypropylcellulose) (HPC) 100 % of control | dose: 400.0 mg/kg/injection, schedule: Q01DX009 (ip), vehicle: Klucel (hydroxypropylcellulose) (HPC) 102 % of control

CC/C(=N\[N+](C)(C)C)c1ccccc1
inactive: dose: 18.8 mg/kg/injection, schedule: Q04DX003 (ip), vehicle: saline 100 % of control | dose: 37.5 mg/kg/injection, schedule: Q04DX003 (ip), vehicle: saline 97 % of control | [6] 100 % of control | dose: 75.0 mg/kg/injection, schedule: Q04DX003 (ip), vehicle: saline 100 % of control

c1ccc(Nc2ccc(C(c3ccccc3)(c3ccccc3)c3ccccc3)cc2)cc1
inactive: dose: 25.6 mg/kg/injection, schedule: Q04DX002 (ip), vehicle: saline with Tween-80 97 % of control | dose: 64.0 mg/kg/injection, schedule: Q04DX002 (ip), vehicle: saline with Tween-80 94 % of control | dose: 160.0 mg/kg/injection, schedule: Q04DX002 (ip), vehicle: saline with Tween-80 97 % of control | [7] 91 % of control

CC(=O)Nc1ccc(F)c(Cl)c1F
inactive: [8] 121 % of control | [9] 105 % of control | [10] 102 % of control

NC(=O)NNc1ccccc1
inactive: [8] 94 % of control | [9] 94 % of control | [10] 90 % of control

CC1(C)N=C(N)Nc2nnc(-c3ccc(Cl)cc3)n21
inactive: [3] 97 % of control | [4] 97 % of control | [5] 94 % of control

c1ccc(-c2nn(-c3ccccc3)[n+](-c3ccccc3-c3ccccc3)n2)cc1
inactive: dose: 4.0 mg/kg/injection, schedule: Q01DX015 (ip), vehicle: carboxymethylcellulose (CMC) 98 % of control | dose: 8.0 mg/kg/injection, schedule: Q01DX015 (ip), vehicle: carboxymethylcellulose (CMC) 93 % of control | dose: 16.0 mg/kg/injection, schedule: Q01DX015 (ip), vehicle: carboxymethylcellulose (CMC) 94 % of control

CC(C)CN(CC(C)C)Cn1nnc2ccccc21
inactive: dose: 75.0 mg/kg/injection, schedule: Q01DX001 (ip), vehicle: carboxymethylcellulose (CMC) 100 % of control | dose: 150.0 mg/kg/injection, schedule: Q01DX001 (ip), vehicle: carboxymethylcellulose (CMC) 94 % of control | dose: 300.0 mg/kg/injection, schedule: Q01DX001 (ip), vehicle: carboxymethylcellulose (CMC) 108 % of control

CSCC(O)CSC
inactive: dose: 100.0 mg/kg/injection, schedule: Q04DX002 (ip), vehicle: saline with Tween-80 90 % of control | dose: 200.0 mg/kg/injection, schedule: Q04DX002 (ip), vehicle: saline with Tween-80 93 % of control | [7] 87 % of control
